Reference: patent US20130189714A1, “METHOD FOR THE DETECTION AND/OR QUANTIFICATION OF THE INTERACTION OF PLATELETS WITH INTERACTION PARTNERS” (SANOFI, priority 2010, published 2013)
Residues, ends and D or L forms follow the SMILES beside them.

What was measured:
[1] = tested on: interaction of platelets with collagen 1 (rat tail); experiment: platelet-collagen 1 interaction assay (counter-screen); format: cell-based, human; conditions: test substances at 10 μM
Experimental: For this assay essentially the same set up was used as described above for testing the adhesion of platelets onto A1-coated plates.
To coat wells with rat tail collagen1, a stock solution consisting of 200 μg/ml Collagen I (rat tail, SIGMA (C8897)) in 0.01 M acetic acid was prepared. This solution was diluted with 0.01 M acetic acid to 10 μg/ml and 25 μl was added to a 384 well. Plates were incubated overnight at 4 C for binding of collagen1 to the well. One hour before test substance addition, the wells of the plates were blocked with BSA as described above. Also the preparation, labeling and dispension of platelets was as described for vWF-A1. For the platelet adhesion to collagen I, the concentration of MgCl2 was increased to 4 mM and the number of platelets added per well to 50 000 platelets. Using these conditions, the assay was able to detect the interaction of specific inhibitors with good statistical parameters, see FIG. 11.
A set of 6 plates were tested under automated conditions. For all plates a Z′ value above 0.5 was obtained with a S/B of 20 or more.
A training set composed 69 test substances in total was used to validate this assay. […]

[2] = biological target: T1, interaction of platelets (GPIb) with vWF-A1 domain (Homo sapiens, UniProt P07359); experiment: platelet adhesion to wells coated with vWF-A1 (calcein-AM labelled platelets, Acumen laser-scanning cytometry); format: cell-based
T1 construct: it is advantageous to use whole platelets instead of the isolated GpIb protein; host or cells: human platelets from platelet concentrate
T1 sequence (P07359 17-652): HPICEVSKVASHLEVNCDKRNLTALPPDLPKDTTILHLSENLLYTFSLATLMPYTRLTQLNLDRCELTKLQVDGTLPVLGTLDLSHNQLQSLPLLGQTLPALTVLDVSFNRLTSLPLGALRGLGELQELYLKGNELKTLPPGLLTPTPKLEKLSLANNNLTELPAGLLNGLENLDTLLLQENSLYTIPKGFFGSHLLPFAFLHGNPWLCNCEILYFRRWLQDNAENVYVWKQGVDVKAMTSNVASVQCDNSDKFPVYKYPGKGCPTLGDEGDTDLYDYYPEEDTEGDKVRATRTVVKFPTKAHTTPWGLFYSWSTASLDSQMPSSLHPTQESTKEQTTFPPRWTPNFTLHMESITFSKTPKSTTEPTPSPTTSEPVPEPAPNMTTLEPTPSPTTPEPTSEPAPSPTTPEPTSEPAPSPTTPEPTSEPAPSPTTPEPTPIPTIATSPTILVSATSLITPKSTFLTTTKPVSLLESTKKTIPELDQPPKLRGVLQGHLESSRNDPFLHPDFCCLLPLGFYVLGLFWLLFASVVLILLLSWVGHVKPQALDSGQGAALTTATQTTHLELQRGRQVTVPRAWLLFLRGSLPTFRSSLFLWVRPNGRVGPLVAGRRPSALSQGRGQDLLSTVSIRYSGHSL
T1 sequence (P13224 26-206 partner): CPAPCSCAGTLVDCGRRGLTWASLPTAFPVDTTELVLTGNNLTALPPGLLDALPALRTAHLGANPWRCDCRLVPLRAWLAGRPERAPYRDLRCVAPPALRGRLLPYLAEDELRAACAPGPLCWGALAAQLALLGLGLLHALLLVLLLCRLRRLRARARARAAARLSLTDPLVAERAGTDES
T1 sequence (P14770 17-177 partner): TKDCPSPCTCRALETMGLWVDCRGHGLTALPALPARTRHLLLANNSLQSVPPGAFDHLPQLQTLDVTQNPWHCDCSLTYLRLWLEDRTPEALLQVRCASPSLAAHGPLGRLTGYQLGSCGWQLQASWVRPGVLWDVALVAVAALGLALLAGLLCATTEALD
Experimental: 25 μl of the TBS-vWF-A1-Coating/Blocking-Puffer 1× (containing 15 μg/ml vWF-A1) is added sterile per well using a Multidrop from Labsystems. Plates were incubated and stored minimally overnight up to one week. Storage is at 4 C, sterile and protected against evaporation.
One hour before test substance addition, the wells of the plates were blocked with BSA. Before the wells were washed with 1×TBS-Washbuffer, 60 μl/Well using an ELx405 Microplate Washer (96 wells) from Biotek.
Immediately after (wells should not dry out) the wells were blocked 5% BSA-Fatty acid free 40 μl/Well using a Multidrop from Labsystems. Wells were incubated 1-2 hours until test substances were added.
Sealed plates delivered from test substance management were stored at −20° C. until use. Test substances were dissolved in 100% DMSO at 3 mM. Test substances were diluted in TBS-Adhaesionbuffer 1× till 10 μM final concentration. Diluted test substance were stored at RT and used within hours. HTS occurred in single-point determination.
Surplus of BSA is washed away by washing the wells with 1×TBS-Washbuffer, 60 μl/Well using an ELx405 Microplate Washer (96 wells) from Biotek, followed by the addition of 10 μl test substance solution or high and low control using Cybio robotics. Plates were not allowed to dry out.
LOW-Control: no vWF-A1-Coating, just BSA-treated plates for blocking HIGH-Control: vWF-A1+ Standard (non-toxic GPIb inhibitor) vWF-A1+ and OS-1 10 μM
The total time needed between removing the platelets from the platelet concentrate, as obtained from the German Red Cross and disoensing the platelets into the multiwall plates should be between 45-60 mins.
The bag containing the platelet concentrate, as obtained from the German Red Cross, is removed from the agitation table (see 1.2; cells) and is put in a sterile flow cabinet on an absorbing towel to absorb any spills. The tubing, tube clamps and scissors are sterilized with 70% ethanol in water.
The tubing from the bag with platelet concentrate is clamped and the tubing is cut. The clamp is released and the first ca. 10 ml concentrate that comes out of the bag is discarded. 30 ml concentrate is poured into n 50 ml BD-Falcon tube made of polypropylene.
Next, 2.5 μl PGE-stock (0.5 mg/ml) is added to an empty 12 ml round-bottom tube made of polypropylene (Greiner). To this 5 ml platelet concentrate is added (final concentration of PGE1 is 0.25 μg/ml) and the tube is gently mixed and incubated 5 min at RT. […]

## CSCC[C@@H]1NC(=O)[C@H](CCCNC(=N)N)NC(=O)[C@H](CCC(=O)O)NC(=O)[C@H]([C@@H](C)O)NC(=O)[C@@H](N)CSSC[C@@H](C(=O)O)NC(=O)[C@H](CC(C)C)NC(=O)[C@H](CC(N)=O)NC(=O)[C@H](Cc2c[nH]cn2)NC(=O)[C@H](CC(C)C)NC(=O)[C@H](C)NC1=O [OS-1] (HELM PEPTIDE1{C.T.E.R.M.A.L.H.N.L.C}$PEPTIDE1,PEPTIDE1,1:R3-11:R3$$$V2.0; N-terminus and C-terminus assumed)
[1]
  inhibition of the platelet interaction with collagen: did not inhibit
[2]; OS-1 at 10 μM, optimized washer settings, FIG. 6
  inhibition at 10 µM: ~90%
[2]; all plates of the run, FIG. 9
  inhibition by OS-1 during fully automated run of 30 plates: high inhibition
[2]; optimized washer program, FIG. 6 legend
  inhibition of platelet attachment to vWF-A1 (in words): almost complete inhibition
[2]; prolonged storage at room temperature, FIG. 8
  effect of increasing plate storage times on inhibition: almost constant values
